Test results: patent US9232799B2, “N-[(het)arylethyl)] pyrazole(thio)carboxamides and their heterosubstituted analogues” (BAYER INTELLECTUAL PROPERTY GMBH, priority 2010, dated 2016)

Assays:
Fusarium graminearum = experiment: microbe, parasite or virus in culture; type: cell-based; settings: 50 μM
aflatoxines production = experiment: microbe, parasite or virus in culture; type: cell-based, Aspergillus parasiticus; settings: 50 μM
Pyrenophora teres = experiment: In vivo preventive test on Pyrenophora teres (barley); settings: 500 ppm of active ingredient, evaluated 7-9 days after inoculation
From the text: One day after this treatment, the plants are inoculated with an aqueous spore suspension of Pyrenophora teres.

Alternaria solani = experiment: In vivo preventive test on Alternaria solani (tomato); settings: 500 ppm of active ingredient, evaluated 7 days after inoculation
From the text: One day after this treatment, the plants are inoculated with an aqueous spore suspension of Alternaria solani.

[1] = logP by HPLC on reversed-phase column (C 18), EEC Directive 79/831 Annex V.A8; type: physicochemical
Method: In table 1, the logP values were determined in accordance with EEC Directive 79/831 Annex V.A8 by HPLC (High Performance Liquid Chromatography) on a reversed-phase column (C 18), using the method described below: Temperature: 40° C.; […]

Cn1nc(C(F)F)c(C(=O)NCCc2ccsc2Br)c1Cl [Example 165]
% Inhibition of fungal growth at 50 μM (Fusarium graminearum): 81%
% Inhibition of Aflatoxin at 50 μM (aflatoxines production): 99%
Efficacy (Pyrenophora teres): 95%
Efficacy (Alternaria solani): 90%
logP [1]: 2.82

CN(CCc1ccc(C(C)(C)C)cc1)C(=O)c1c(C(F)F)nn(C)c1F [Example 138]
% Inhibition of fungal growth at 50 μM (Fusarium graminearum): 80%
% Inhibition of Aflatoxin at 50 μM (aflatoxines production): 100%
Efficacy (Pyrenophora teres): 95%
Efficacy (Alternaria solani): 100%
logP [1]: 3.78

Cn1nc(C(F)F)c(C(=O)NCCc2ncc(C(F)(F)F)cc2Cl)c1Cl [Example 191]
% Inhibition of fungal growth at 50 μM (Fusarium graminearum): 100%
% Inhibition of Aflatoxin at 50 μM (aflatoxines production): 100%
Efficacy (Pyrenophora teres): 100%
Efficacy (Alternaria solani): 94%
logP [1]: 2.97

CN(CCc1ccc(F)cc1)C(=O)c1c(C(F)F)nn(C)c1F [Example 22]
% Inhibition of fungal growth at 50 μM (Fusarium graminearum): 100%
% Inhibition of Aflatoxin at 50 μM (aflatoxines production): 100%
Efficacy (Pyrenophora teres): 100%
Efficacy (Alternaria solani): 100%
logP [1]: 2.50

CC(Cc1ccco1)NC(=O)c1c(C(F)F)nn(C)c1F (centres unmarked) [Example 173]
% Inhibition of fungal growth at 50 μM (Fusarium graminearum): 83%
% Inhibition of Aflatoxin at 50 μM (aflatoxines production): 100%
logP [1]: 2.20

Cc1cccnc1CC(NC(=O)c1c(C(F)F)nn(C)c1F)C(F)(F)F (centres unmarked) [Example 185]
% Inhibition of fungal growth at 50 μM (Fusarium graminearum): 87%
% Inhibition of Aflatoxin at 50 μM (aflatoxines production): 100%
Efficacy (Pyrenophora teres): 94%
Efficacy (Alternaria solani): 95%
logP [1]: 1.52

CC(Cc1ccc(Oc2ccccc2)cc1)NC(=O)c1c(C(F)F)nn(C)c1Cl (centres unmarked) [Example 154]
% Inhibition of fungal growth at 50 μM (Fusarium graminearum): 80%
% Inhibition of Aflatoxin at 50 μM (aflatoxines production): 99%
Efficacy (Pyrenophora teres): 100%
Efficacy (Alternaria solani): 100%
logP [1]: 3.83

Cn1nc(C(F)F)c(C(=O)NCCc2c(Cl)cccc2Cl)c1F [Example 117]
% Inhibition of fungal growth at 50 μM (Fusarium graminearum): 100%
% Inhibition of Aflatoxin at 50 μM (aflatoxines production): 100%
Efficacy (Pyrenophora teres): 100%
Efficacy (Alternaria solani): 95%
logP [1]: 3.00

Cc1ccsc1CCNC(=O)c1c(C(F)F)nn(C)c1F [Example 164]
% Inhibition of fungal growth at 50 μM (Fusarium graminearum): 95%
% Inhibition of Aflatoxin at 50 μM (aflatoxines production): 100%
Efficacy (Pyrenophora teres): 100%
Efficacy (Alternaria solani): 95%
logP [1]: 2.49

CN(CCc1ccccc1)C(=O)c1c(C(F)F)nn(C)c1F [Example 4]
% Inhibition of fungal growth at 50 μM (Fusarium graminearum): 91%
% Inhibition of Aflatoxin at 50 μM (aflatoxines production): 100%
Efficacy (Pyrenophora teres): 95%
Efficacy (Alternaria solani): 100%
logP [1]: 2.43

Cn1nc(C(F)F)c(C(=O)NCCc2cc(Cl)ccc2Cl)c1Cl [Example 91]
% Inhibition of fungal growth at 50 μM (Fusarium graminearum): 100%
% Inhibition of Aflatoxin at 50 μM (aflatoxines production): 100%
Efficacy (Pyrenophora teres): 100%
Efficacy (Alternaria solani): 95%
logP [1]: 3.29

Cn1nc(C(F)F)c(C(=O)NC[Si](C)(C)c2ccccc2)c1Cl [Example 227]
% Inhibition of fungal growth at 50 μM (Fusarium graminearum): 71%
% Inhibition of Aflatoxin at 50 μM (aflatoxines production): 87%
Efficacy (Pyrenophora teres): 100%
Efficacy (Alternaria solani): 95%
logP [1]: 3.31

COc1ccc(CCN(C)C(=O)c2c(C(F)F)nn(C)c2F)cc1OC [Example 129]
% Inhibition of fungal growth at 50 μM (Fusarium graminearum): 70%
% Inhibition of Aflatoxin at 50 μM (aflatoxines production): 90%
Efficacy (Pyrenophora teres): 90%
logP [1]: 2.04

Cn1nc(C(F)F)c(C(=O)NCCc2ccsc2Br)c1F [Example 166]
% Inhibition of fungal growth at 50 μM (Fusarium graminearum): 97%
% Inhibition of Aflatoxin at 50 μM (aflatoxines production): 100%
logP [1]: 2.64

C#CCOc1cc(C(OC)C(C)NC(=O)c2c(C(F)F)nn(C)c2Cl)ccc1OC (centres unmarked) [Example 159]
% Inhibition of fungal growth at 50 μM (Fusarium graminearum): 77%
% Inhibition of Aflatoxin at 50 μM (aflatoxines production): 98%
logP [1]: 2.76

CC(Cc1ccco1)NC(=O)c1c(C(F)F)nn(C)c1Cl (centres unmarked) [Example 174]
% Inhibition of fungal growth at 50 μM (Fusarium graminearum): 76%
% Inhibition of Aflatoxin at 50 μM (aflatoxines production): 89%
logP [1]: 2.37

Cn1nc(C(F)F)c(C(=O)NC2CCCCC2c2ccccc2)c1F (centres unmarked) [Example 212]
% Inhibition of fungal growth at 50 μM (Fusarium graminearum): 99%
% Inhibition of Aflatoxin at 50 μM (aflatoxines production): 100%
Efficacy (Alternaria solani): 89%
logP [1]: 3.13

COCCN(CCc1ccncc1)C(=O)c1c(C(F)F)nn(C)c1Cl [Example 202]
% Inhibition of fungal growth at 50 μM (Fusarium graminearum): 81%
% Inhibition of Aflatoxin at 50 μM (aflatoxines production): 99%
logP [1]: 1.69

CCN(C(=O)c1c(C(F)F)nn(C)c1F)C(C)C(=O)c1ccccc1 (centres unmarked) [Example 17]
% Inhibition of fungal growth at 50 μM (Fusarium graminearum): 83%
% Inhibition of Aflatoxin at 50 μM (aflatoxines production): 100%
Efficacy (Alternaria solani): 80%
logP [1]: 2.59

Cn1nc(C(F)F)c(C(=O)NC2CC2c2ccc(F)cc2)c1F (centres unmarked) [Example 220]
% Inhibition of fungal growth at 50 μM (Fusarium graminearum): 81%
% Inhibition of Aflatoxin at 50 μM (aflatoxines production): 100%
Efficacy (Pyrenophora teres): 100%
logP [1]: 2.59
